EC50, IC50 and outcome data for 73 molecules are collected here from PubChem BioAssay AID179 (DTP/NCI, 2004).

The subject of this test is CEM cells HIV-1 protection, formazan growth assay. The test can be described thus: NCI AIDS Antiviral Assay. The following applies: for IC50: measured here: growth of uninfected CEM cells. A digest of the protocol: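 Human CEM cells, uninfected and HIV-1-infected, received five drug concentrations, and growth was read by soluble formazan assay. Compounds giving at least 50% protection were retested; reproducible 100% protection defined confirmed active.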

Each structure is given as a SMILES string. Active and inactive are the calls of the source.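 How the source made its calls: active means compounds giving half or more protection of infected cells from virus-caused growth loss, again on retest; inactive means the rest.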

As a reminder, the EC50 is the midpoint of the concentration-response curve. Usually IC50 stands for the concentration that inhibits the measured activity by half. Read a low IC50 as inhibition by little substance.

`c1cc(-c2nc3sc(-c4ccncc4)nc3s2)ccn1`: the EC50 is above 24.5 µM and the IC50 was above 24.5 µM.
`O=c1[nH]c(=S)nc2nc3c4ccc[nH]c4c4ccccc4c3nc12`: the EC50 is above 200 µM and the IC50 was 58.9 µM.
The corresponding values for `O=C(NNC(=O)c1cc2ccccc2[nH]1)c1cc2ccccc2[nH]1` are above 200 µM and above 200 µM.
The corresponding values for `Cc1c(C#N)c(N)n(C2OC(CO)C(O)C(O)C2O)c(=S)c1C#N` (stereo not drawn) are above 200 µM and above 200 µM.
In the same order, the values of `Cc1cc(Cl)c(O)c(C2(C(O)c3ccc(O)cc3)NC(=S)NC2=O)c1` (stereo not drawn) are above 200 µM and 107 µM.
As for `O=C1CSC(c2cccc(Cl)c2)N1c1ccc(-n2c(-c3ccccc3)nc3ccccc3c2=O)cc1` (stereo not drawn), the EC50 was above 200 µM and the IC50 came out at 138 µM.
The corresponding values for `S=C(NN1CCOCC1)SSC(=S)NN1CCOCC1` are above 20 µM and 0.933 µM.
As to `O=C1c2ccccc2S(=O)(=O)N1Sc1ccccc1[N+](=O)[O-]`, the EC50 was above 200 µM and the concentration for half-maximal inhibition (IC50) came to 17 µM.
In the same order, the values of `CC(C)OP(=O)(OC(C)C)C1=NN(c2ccc([N+](=O)[O-])cc2)C(N)(N)S1` are above 617 µM and 135 µM.
The corresponding values for `S=C1NNC2(C(=S)N1)c1ccccc1-c1ccccc12` are above 200 µM and 87.1 µM.
On to `OC(c1ccccc1)C(F)(F)c1nc2ccccc2o1` (stereo not drawn), for which the EC50 is above 200 µM and the half-inhibitory concentration (IC50) is above 200 µM.
Consider `COc1ccc2nc(CC(=N)c3ccc(N(C)C)cc3)ccc2c1`, for which the EC50 is above 200 µM and the IC50 turned out to be 23.4 µM.
For the molecule `CNCCCC1c2ccccc2C=Cc2ccccc21`, the EC50 is above 200 µM and the half-maximal inhibitory concentration (IC50) came out at 37.2 µM.
`C1=C\SS/C=C\SS/1`: the EC50 was above 200 µM and the IC50 was found to be 22.9 µM.
In the case of `C[C@@]12CCC[C@H]1[C@@H]1CC=C3C[C@@H](S)CC[C@]3(C)[C@H]1CC2`, the EC50 is above 200 µM and the concentration for half-maximal inhibition (IC50) worked out at 66.1 µM.
Consider `NC(N)=Nc1ccc2oc(=O)ccc2c1`, for which the EC50 was above 120 µM and the IC50 is above 120 µM.
Consider `COC1=C(CC(C)=O)C(=O)c2c(O)c(CO)cc(O)c2C1=O`, for which the result was inactive.
Turning to `OCCCN=C1N=C(Cl)/C(=C\c2ccccc2)N1`, the EC50 is above 200 µM and the IC50 is above 200 µM.
Regarding `CCOC(=O)Cn1c(=O)c2nc(SC)sc2n(-c2ccccc2)c1=S`, the EC50 was above 200 µM and the IC50 was above 200 µM.
`Nc1ccc(F)cc1-c1nc2ccc(F)cc2c2nc3ccccc3n12`: the result was inactive.
Regarding `[O-][n+]1c(-c2ccccc2)oc2ccccc21`, the EC50 was above 9.55 µM and the IC50 is above 9.55 µM.
For the molecule `CCCCCCCCCCC(O)C1CCC(C(O)CCC(O)C2CCC(CCCCCCC[C@H](O)CC3=C[C@@H](C)OC3=O)O2)O1` (stereo partly drawn), the EC50 is above 7.76 µM and the half-inhibitory concentration (IC50) came to 0.00245 µM.
The corresponding values for `CCOc1ccc(N=Nc2ccc3cc(/C(C)=N/NC(=O)/C(C#N)=C\c4ccc(N(CCC#N)CCC#N)cc4)c(=O)oc3c2)cc1` are above 200 µM and above 200 µM.
The corresponding values for `CCCc1cc(=O)oc2c3c(c4c(c12)OC(C)(C)C=C4)O[C@H](C)C(C)[C@@H]3O` (stereo partly drawn) are 0.331 µM and 25.1 µM.
The corresponding values for `CC1C(=O)CC2C3(C)CCC2(C(C)C(=O)O)C(=O)C13` (stereo not drawn) are above 275 µM and 224 µM.
For `CN(C)c1cc(CN[C@@H](Cc2cn(C(c3ccccc3)(c3ccccc3)c3ccccc3)cn2)C(=O)O)nc(CN[C@@H](Cc2cn(C(c3ccccc3)(c3ccccc3)c3ccccc3)cn2)C(=O)O)c1`, the EC50 is above 100 µM and the concentration for half-maximal inhibition (IC50) was determined as 19.5 µM.
As to `N.N.N.N.N.O=C([O-])c1nn[n-]n1.[Cl-].[Co+3]`, the EC50 is above 16.2 µM and the IC50 was above 16.2 µM.
Take `N#C/C(=C\c1ccc(-c2ccccc2)cc1)C(=O)c1ccccc1`: the EC50 is above 83.2 µM and the IC50 stood at 27.5 µM.
For `CC1=NN(C(=O)Cc2ccccc2)C(=O)/C1=C\c1cccc(O)c1`, the EC50 is above 22.4 µM and the IC50 is above 22.4 µM.
For the molecule `C[N+](C)([O-])C12CC3CC(CC(C3)C1)C2`, the EC50 was above 200 µM and the IC50 was above 200 µM.
As to `NC1=NN(c2ccccc2)C(=O)C1C(=O)CCC(=O)Nc1cccc(Cl)c1` (stereo not drawn), the EC50 was above 339 µM and the half-inhibitory concentration (IC50) was above 339 µM.
With `C/C(CC1SCCCS1)=C(/C)CC1SCCCS1`, the EC50 is above 200 µM and the concentration for half-maximal inhibition (IC50) is above 200 µM.
Turning to `Cc1cc2c(-c3ccccc3)c3cc(C)c(N)cc3nc2cc1N`, the EC50 is above 200 µM and the 50% inhibitory concentration (IC50) was determined as 2.75 µM.
In the same order, the values of `c1ccc(CCN(CCc2ccccn2)CCc2ccccn2)nc1` are above 200 µM and above 100 µM.
The corresponding values for `O=c1c([Se]c2coc3ccccc3c2=O)coc2ccccc12` are above 10.2 µM and above 10.2 µM.
With `COc1ccc(-c2noc(=O)c3ccccc23)cc1`, the result was inactive.
For `CCNC(=O)NNc1ncnc2c1c(-c1ccc(Cl)cc1)cn2-c1ccc(C)cc1`, the EC50 was above 200 µM and the concentration for half-maximal inhibition (IC50) is 35.5 µM.
Consider `Cc1cc(O)c(/C=N/C(=S)Nc2ccccc2)c(=O)o1`, for which the EC50 is above 200 µM and the IC50 is above 200 µM.
As for `CCOC(=O)C1C(=O)CN2CCc3c([nH]c4ccccc34)C12C(=O)OCC` (stereo not drawn), the EC50 is above 257 µM and the half-maximal inhibitory concentration (IC50) amounted to 162 µM.
In the case of `CCc1cccc(CC)c1Nc1nc(-c2ccccc2-c2ccccc2)cs1`, the EC50 is above 200 µM and the IC50 was above 200 µM.
For `COc1cccc(C=C2C(=O)OC(C)(C)OC2=O)c1`, the outcome was inactive.
In the case of `O=c1[nH]ncc2c1Sc1cn[nH]c(=O)c1S2`, the EC50 is above 10.7 µM and the IC50 was above 10.7 µM.
On to `C/C=C1\CC2C(=O)CCC2C2c3ccccc3OC12` (stereo not drawn), for which the EC50 was above 200 µM and the half-inhibitory concentration (IC50) is above 200 µM.
In the case of `COc1ccc([C@H]2CC(=O)C[C@H](c3ccc(OC)cc3)C23C(=O)c2ccccc2C3=O)cc1`, the EC50 was above 200 µM and the concentration for half-maximal inhibition (IC50) amounted to 2.63 µM.
The corresponding values for `CCCCCCCCCCCCCCC(O)C[N+](C)(CCO)CCO` (stereo not drawn) are above 200 µM and 1.1 µM.
Regarding `Brc1cccc(C=NC23CC4CC(CC(C4)C2)C3)c1`, the EC50 was above 16.2 µM and the IC50 was above 16.2 µM.
For the molecule `N#CCC1COc2ccccc2O1` (stereo not drawn), the EC50 was above 200 µM and the 50% inhibitory concentration (IC50) is above 200 µM.
In the case of `CSc1nc(NC2CCCC2)c2cc[nH]c2n1`, the EC50 was above 200 µM and the 50% inhibitory concentration (IC50) was 43.7 µM.
In the same order, the values of `CCCCCO/N=C\c1c2c(O)c3c(O)c(C)c4c(c3c1O)C(=O)C(C)(O/C=C\C(OC)C(C)C(OC(C)=O)C(C)C(O)C(C)C(O)C(C)/C=C\C=C(\C)C(=O)N2)O4` (stereo not drawn) are above 200 µM and 8.91 µM.
With `CCc1ccccc1N1C(=O)C(=O)C(c2nc3ccccc3s2)C(=O)C1=O`, the EC50 was above 178 µM and the IC50 came to 93.3 µM.
Regarding `[N-]=[N+]=NC1C2CC3CC(C2)CC1C3` (stereo not drawn), the EC50 is above 77.6 µM and the IC50 was above 77.6 µM.
`[Cl][Ni+2][Cl].[NH-]CCN1CC1`: the EC50 is above 200 µM and the IC50 is 40.7 µM.
In the same order, the values of `CSC1N=CNc2c1sc(=S)n2-c1ccccc1` (stereo not drawn) are above 33.9 µM and above 33.9 µM.
In the same order, the values of `O=C(Nc1c[nH]c(=O)[nH]c1=O)c1ccc(S(=O)(=O)F)cc1` are above 151 µM and 85.1 µM.
For the molecule `COC1=CCC2=C(CC[C@H]3[C@H]2CCP3(C)=S)C1` (stereo partly drawn), the outcome was inactive.
Take `CN(C)/C=N/c1nc2ncn(CCOC(=O)c3ccccc3)c2c(=O)[nH]1`: the EC50 was above 708 µM and the IC50 was above 708 µM.
Regarding `Cc1nc(-n2nc(-c3ccccc3)cc2-c2ccccc2)sc1C(/C=C/c1ccc([N+](=O)[O-])cc1)=N/NC(N)=S`, the EC50 is above 33.1 µM and the IC50 was determined as 26.9 µM.
For the molecule `Cn1cnc2c1S(=O)(=O)NC(=S)N2`, the EC50 is above 1150 µM and the IC50 was above 1150 µM.
Take `CC(C)(C)OC(=O)CN1CCNCCN(CC(=O)OC(C)(C)C)CCNCC1`: the EC50 was above 200 µM and the IC50 is 13.8 µM.
In the same order, the values of `CCN(CC)CC(C(=O)Nc1c(C)cccc1C)/C(C)=N\NC(=O)C[N+](C)(C)C` (stereo not drawn) are above 40.7 µM and above 40.7 µM.
`CCCCN(CC)C(=O)C(=O)C1C(=O)Nc2ccccc2S1=O` (stereo not drawn): the EC50 is above 204 µM and the IC50 was above 204 µM.
Consider `COC(=O)C(Cc1c(-c2[nH]c3ccccc3c2CC(NC(C)=O)C(=O)OC)[nH]c2ccccc12)NC(C)=O` (stereo not drawn), for which the EC50 is above 200 µM and the half-maximal inhibitory concentration (IC50) was above 200 µM.
Consider `O=C1CCC2C(O)c3cc4c(cc3C(c3ccc5c(c3)OCO5)N12)OCO4` (stereo not drawn), for which the EC50 was above 200 µM and the IC50 was above 200 µM.
On to `COC(=O)C1CCOC(C)N1C(=O)OC(C)(C)C` (stereo not drawn), for which the EC50 is above 200 µM and the IC50 was above 200 µM.
In the case of `O=C1c2ccccc2C(=O)C2C3c4ccccc4C(c4ccccc43)C12` (stereo not drawn), the EC50 is above 15.5 µM and the IC50 was above 15.5 µM.
Consider `CCCCCCCCCCCCCCCCN1c2ccccc2C(C)(C)C12C=Cc1cccc([N+](=O)[O-])c1O2` (stereo not drawn), for which the EC50 is above 200 µM and the 50% inhibitory concentration (IC50) was above 200 µM.
`CC(=O)N1c2ccccc2N(C(C)=O)C1c1ccc(C2N(C(C)=O)c3ccccc3N2C(C)=O)[nH]1`: the outcome was inactive.
The same measure, in the same setting: under `COc1ccccc1-c1csc(CCC(N)C(=O)O)n1` (stereo not drawn) stands “inactive”.
Consider `O=c1[nH]c(F)nc2c1ncn2C1OC(CO)C(O)C1O` (stereo not drawn), for which the EC50 was above 200 µM and the IC50 is above 200 µM.
On to `Cc1ccc(NC(=O)CCCC(=O)CC(=O)c2ccc(Br)cc2)cc1`, for which the EC50 was above 309 µM and the IC50 was above 309 µM.
As for `O=C(N/N=C(\c1nc2ccc(Cl)cc2[nH]c1=O)C(O)c1ccccc1Cl)c1ccncc1` (stereo not drawn), the EC50 is above 537 µM and the half-maximal inhibitory concentration (IC50) is above 537 µM.
Regarding `COc1cc2c(cc1OC)C1CC3(CC4c5cc(OC)c(OC)cc5CCN4CC3CO)C(CO)CN1CC2` (stereo not drawn), the result was inactive.
Take `O=C1OCC2Cc3sccc3C(c3ccccc3)=C12` (stereo not drawn): the EC50 is above 97.7 µM and the IC50 is above 97.7 µM.
